The subject of experiment [1] is A549 (human lung carcinoma cell line). The experiment can be described thus: Glo assay of A549 cells (Table 3; ProteasomeGlo plating scheme). Format: cell-based. Conditions: Homo sapiens; A549 cells; read-out: PGLo A549. A digest of the protocol: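 Cells plated in 384 wells; compound, DMSO, staurosporine transferred by ECHO; 105 min, 37° C., 5% CO2; Proteasome-Glo (Suc-LLVY-Glo) reagent added; dark 10-15 min; luminescence; IC50 nM.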

The target in experiment [2] is T1, β5 subunit of the human immunoproteasome (IPS) (Homo sapiens, UniProt P28062).
T1 construct: purchased Boston Biochem E-370
The experiment can be described thus: β5 inhibition assay, human immunoproteasome (Suc-LLVY-AMC). The class given is biochemical. As to conditions: IC50 class, Suc-LLVY-AMC substrate. A digest of the protocol: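 β5 activity is read as liberated AMC fluorescence (355/460 nm) after 4 h dark reaction at RT with 22.6 μM Suc-LLVY-AMC, stopped by 1 μM bortezomib. Beforehand, 1 nM human IPS and compound sat 10 min at RT in HEPES pH 7.5 buffer containing NaCl, 0.02% SDS and DTT.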

`CC(=O)N[C@H]1CC(=O)N2CCOC(CCOc3ccc(C)c(c3)CNC(=O)[C@H](CCc3ccccc3)NC1=O)C2` (stereo partly drawn) [Compound 258, N-((9S,12S)-5^4-methyl-8,11,14-trioxo-9-phenethyl-4-oxa-7,10-diaza-1(2,4)-morpholina-5(1,3)-benzenacyclotetradecaphane-12-yl)acetamide]: the IC50 in experiment [1] is 500 to 1000 nM; in experiment [2], less than 100 nM.
The like results for `COc1ccc2cc1CNC(=O)[C@H](CCc1ccccc1)NC(=O)[C@@H](NC(C)=O)CC(=O)N1CCCC(CCO2)C1` (stereo partly drawn) [Compound 211, N-((9S,12S)-5^4-methoxy-8,11,14-trioxo-9-phenethyl-4-oxa-7,10-diaza-1(3,1)-piperidina-5(1,3)-benzenacyclotetradecaphane-12-yl)acetamide] were, in that order, 500 to 1000 nM and less than 100 nM.
Consider `CNCC(=O)N[C@H]1CC(=O)N2CCCC(CCOc3ccc(C)c(c3)CNC(=O)[C@H](CCc3ccccc3)NC1=O)C2` (stereo partly drawn) [Compound 129, N-((9S,12S)-5^4-methyl-8,11,14-trioxo-9-phenethyl-4-oxa-7,10-diaza-1(3,1)-piperidina-5(1,3)-benzenacyclotetradecaphane-12-yl)-2-(methylamino)acetamide], for which the IC50 in experiment [1] and in experiment [2] was less than 100 nM throughout.
On to `Cc1ccc2cc1CNC(=O)[C@H](CCc1ccccc1)NC(=O)CCCCC(=O)N1CCCC(CCO2)C1` (stereo partly drawn) [Compound 16, (9S)-5^4-methyl-9-phenethyl-4-oxa-7,10-diaza-1(3,1)-piperidina-5(1,3)-benzenacyclohexadecaphane-8,11,16-trione], for which the results for the IC50 in experiment [1] and in experiment [2] were 500 to 1000 nM and less than 100 nM, respectively.
As for `CC(=O)N[C@H]1CC(=O)N2CCCC(CCOc3ccc(F)c(c3)CNC(=O)[C@H](CCc3ccccc3)NC1=O)C2` (stereo partly drawn) [Compound 205, N-((9S,12S)-5^4-fluoro-8,11,14-trioxo-9-phenethyl-4-oxa-7,10-diaza-1(3,1)-piperidina-5(1,3)-benzenacyclotetradecaphane-12-yl)acetamide], the IC50 in experiment [1] and in experiment [2] was less than 100 nM throughout.
Consider `Cc1ccc2cc1CNC(=O)[C@H](CCc1ccccc1)NC(=O)[C@@H](NC(=O)C1(C)COC1)CC(=O)N1CCCC(CCO2)C1` (stereo partly drawn) [Compound 287, 3-methyl-N-((9S,12S)-5^4-methyl-8,11,14-trioxo-9-phenethyl-4-oxa-7,10-diaza-1(3,1)-piperidina-5(1,3)-benzenacyclotetradecaphane-12-yl)oxetane-3-carboxamide], for which the IC50 in experiment [1] and in experiment [2] was less than 100 nM throughout.
With `C=CC(=O)N[C@H]1CC(=O)N2CCCC(CCOc3ccc(C)c(c3)CNC(=O)[C@H](CCc3ccccc3)NC1=O)C2` (stereo partly drawn) [Compound 181, N-((9S,12S)-5^4-methyl-8,11,14-trioxo-9-phenethyl-4-oxa-7,10-diaza-1(3,1)-piperidina-5(1,3)-benzenacyclotetradecaphane-12-yl)acrylamide], the IC50 in experiment [1] and in experiment [2] was less than 100 nM throughout.
For the molecule `Cc1ccc2cc1CNC(=O)[C@H](CCc1ccccc1)NC(=O)[C@@H](NC(=O)c1ccccc1)CC(=O)N1CCCC(CCO2)C1` (stereo partly drawn) [Compound 26, N-((9S,12S)-5^4-methyl-8,11,14-trioxo-9-phenethyl-4-oxa-7,10-diaza-1(3,1)-piperidina-5(1,3)-benzenacyclotetradecaphane-12-yl)benzamide], the IC50 in experiment [1] and in experiment [2] was less than 100 nM each time.
On to `CC(=O)N[C@H]1CCCC(=O)N2CCOC(CCOc3ccc(C)c(c3)CNC(=O)[C@H](CCc3ccccc3)NC1=O)C2` (stereo partly drawn) [Compound 186, N-((9S,12S)-5^4-methyl-8,11,16-trioxo-9-phenethyl-4-oxa-7,10-diaza-1(2,4)-morpholina-5(1,3)-benzenacyclohexadecaphane-12-yl)acetamide], for which the results for the IC50 in experiment [1] and in experiment [2] were 100 to 500 nM and less than 100 nM, respectively.
The like results for `Cc1ccc2cc1CNC(=O)[C@H](CCc1ccccc1)NC(=O)[C@@H](NC(=O)CN1CCOCC1)CC(=O)N1CCCC(CCO2)C1` (stereo partly drawn) [Compound 88, N-((9S,12S)-5^4-methyl-8,11,14-trioxo-9-phenethyl-4-oxa-7,10-diaza-1(3,1)-piperidina-5(1,3)-benzenacyclotetradecaphane-12-yl)-2-morpholinoacetamide] were, in that order, less than 100 nM and less than 100 nM.
Take `Cc1ccc2cc1CNC(=O)[C@H](CCc1ccccc1)NC(=O)[C@@H](NC(=O)C1(N)CCOC1)CC(=O)N1CCCC(CCO2)C1` (stereo partly drawn) [Compound 159, 3-amino-N-((9S,12S)-5^4-methyl-8,11,14-trioxo-9-phenethyl-4-oxa-7,10-diaza-1(3,1)-piperidina-5(1,3)-benzenacyclotetradecaphane-12-yl)tetrahydrofuran-3-carboxamide]: the IC50 was 100 to 500 nM in experiment [1] and less than 100 nM in experiment [2].
The like results for `Cc1ccc2cc1CNC(=O)[C@H](CCc1ccccc1)NC(=O)[C@@H](NC(=O)c1n[nH]c3ccccc13)CC(=O)N1CCCC(CCO2)C1` (stereo partly drawn) [Compound 60, N-((9S,12S)-5^4-methyl-8,11,14-trioxo-9-phenethyl-4-oxa-7,10-diaza-1(3,1)-piperidina-5(1,3)-benzenacyclotetradecaphane-12-yl)-1H-indazole-3-carboxamide] were, in that order, 100 to 500 nM and less than 100 nM.
`CC(=O)N[C@H]1CCCC(=O)N2CC3CC(Oc4ccc(C)c(c4)CNC(=O)[C@H](CCc4ccccc4)NC1=O)C3C2` (stereo partly drawn) [Compound 191, N-((11R,15S,7S,10S)-3^4-methyl-6,9,14-trioxo-7-phenethyl-2-oxa-13,5,8-triaza-1(7,3)-bicyclo[3.2.0]heptana-3(1,3)-benzenacyclotetradecaphane-10-yl)acetamide]: the IC50 was 1000 to 5000 nM in experiment [1] and less than 100 nM in experiment [2].
The like results for `Cc1ccc2cc1CNC(=O)[C@H](CCc1ccccc1)NC(=O)[C@@H](NS(=O)(=O)Cc1ccccc1)CC(=O)N1CCCC(CCO2)C1` (stereo partly drawn) [Compound 216, N-((9S,12S)-5^4-methyl-8,11,14-trioxo-9-phenethyl-4-oxa-7,10-diaza-1(3,1)-piperidina-5(1,3)-benzenacyclotetradecaphane-12-yl)-1-phenylmethanesulfonamide] were, in that order, 100 to 500 nM and less than 100 nM.
Turning to `COCCOCCOCCOCCOCCC(=O)N[C@H]1CC(=O)N2CCCC(CCOc3ccc(C)c(c3)CNC(=O)[C@H](CCc3ccccc3)NC1=O)C2` (stereo partly drawn) [Compound 219, N-((9S,12S)-5^4-methyl-8,11,14-trioxo-9-phenethyl-4-oxa-7,10-diaza-1(3,1)-piperidina-5(1,3)-benzenacyclotetradecaphane-12-yl)-2,5,8,11,14-pentaoxaheptadecan-17-amide], the IC50 in experiment [1] and in experiment [2] was less than 100 nM throughout.
For the molecule `Cc1ccc2cc1CNC(=O)C(c1cnn(C)c1)NC(=O)CCC(=O)N1CCCC(CCO2)C1` (centres unmarked) [Compound 116, 5^4-methyl-9-(1-methyl-1H-pyrazol-4-yl)-4-oxa-7,10-diaza-1(3,1)-piperidina-5(1,3)-benzenacyclotetradecaphane-8,11,14-trione], the IC50 in experiment [1] is more than 5000 nM; in experiment [2], 100 to 500 nM.
As for `Cc1ccc2cc1CNC(=O)[C@@H](CCc1ccccc1)NC(=O)[C@@H](NC(=O)OCc1ccccc1)CC(=O)N1CCC[C@H](CCO2)C1` [Compound 289, benzyl ((13R,9R,12S)-5^4-methyl-8,11,14-trioxo-9-phenethyl-4-oxa-7,10-diaza-1(3,1)-piperidina-5(1,3)-benzenacyclotetradecaphane-12-yl)carbamate], the IC50 in experiment [1] lay in the range of 500 to 1000 nM; in experiment [2], 100 to 500 nM.
Regarding `Cc1ccc2cc1CNC(=O)[C@H](CCc1ccccc1)NC(=O)[C@@H](NC(=O)CCc1cccc(F)c1)CC(=O)N1CCCC(CCO2)C1` (stereo partly drawn) [Compound 25, 3-(3-fluorophenyl)-N-((9S,12S)-5^4-methyl-8,11,14-trioxo-9-phenethyl-4-oxa-7,10-diaza-1(3,1)-piperidina-5(1,3)-benzenacyclotetradecaphane-12-yl)propanamide], the IC50 in experiment [1] and in experiment [2] was less than 100 nM throughout.
Consider `Cc1cc2cc(c1C)CNC(=O)[C@H](Cc1c[nH]c3ccccc13)NC(=O)CCC(=O)N1CCCC(CCO2)C1` (stereo partly drawn) [Compound 120, (9S)-9-((1H-indol-3-yl)methyl)-5^4,5^5-dimethyl-4-oxa-7,10-diaza-1(3,1)-piperidina-5(1,3)-benzenacyclotetradecaphane-8,11,14-trione], for which the IC50 in experiment [1] was 1000 to 5000 nM; in experiment [2], less than 100 nM.
The like results for `Cc1ccc2cc1CNC(=O)[C@H](Cc1ccccc1)NC(=O)CCC(=O)N1CCCC(CCO2)C1` (stereo partly drawn) [Compound 79, (9S)-9-benzyl-5^4-methyl-4-oxa-7,10-diaza-1(3,1)-piperidina-5(1,3)-benzenacyclotetradecaphane-8,11,14-trione] were, in that order, 1000 to 5000 nM and less than 100 nM.
The matching figures for `C=CS(=O)(=O)N[C@H]1CC(=O)N2CCCC(CCOc3ccc(C)c(c3)CNC(=O)[C@H](CCc3ccccc3)NC1=O)C2` (stereo partly drawn) [Compound 180, N-((9S,12S)-5^4-methyl-8,11,14-trioxo-9-phenethyl-4-oxa-7,10-diaza-1(3,1)-piperidina-5(1,3)-benzenacyclotetradecaphane-12-yl)ethenesulfonamide]: less than 100 nM and less than 100 nM.
Turning to `Cc1ccc2cc1CNC(=O)[C@H](CCc1ccccc1)NC(=O)[C@@H](NC(=O)Cc1ccc(N)cc1)CC(=O)N1CCCC(CCO2)C1` (stereo partly drawn) [Compound 128, 2-(4-aminophenyl)-N-((9S,12S)-5^4-methyl-8,11,14-trioxo-9-phenethyl-4-oxa-7,10-diaza-1(3,1)-piperidina-5(1,3)-benzenacyclotetradecaphane-12-yl)acetamide], the IC50 in experiment [1] and in experiment [2] was less than 100 nM in each case.
